Test results reported in ChEMBL document CHEMBL1201862, “PubChem BioAssay data set” (2004).
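Step 1: Grow cells in 96-well plates. Step 2: Expose to compound for 48 hours at 5 concentrations. Step 3: Interpolate endpoints linearly; if unreached, use highest concentration. GI50: concentration for 50% inhibition of growth.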 Activity calls are given as the source filed them. No stated cut-off is given here; in the data, active = GI50 up to about 1.1 µM and inactive = higher.

Tests used:
Test in all cases: inhibition of tumour cell growth, NCI panel, 48 h
[1] = tested on: NCI-H226
[2] = tested on: HCT-15
[3] = tested on: SF-295
[4] = tested on: Hs-578T
[5] = tested on: SK-OV-3
[6] = tested on: SK-MEL-2
[7] = tested on: SF-268
[8] = tested on: NCI-H23
[9] = tested on: SK-MEL-5
[10] = tested on: OVCAR-3
[11] = tested on: TK-10
[12] = tested on: COLO 205
[13] = tested on: ACHN
[14] = tested on: HOP-92
[15] = tested on: PC-3
[16] = tested on: NCI-H460
[17] = tested on: CAKI-1
[18] = tested on: MDA-MB-231
[19] = tested on: HCC 2998
[20] = tested on: KM12
[21] = tested on: UO-31
[22] = tested on: OVCAR-4
[23] = tested on: MOLT-4
[24] = tested on: MDA-MB-435
[25] = tested on: HT-29
[26] = tested on: BT-549
[27] = tested on: NCI/ADR-RES
[28] = tested on: OVCAR-5
[29] = tested on: T47D
[30] = tested on: A549
[31] = tested on: M14
[32] = tested on: UACC-257
[33] = tested on: SNB-75
[34] = tested on: U-251
[35] = tested on: Malme-3M
[36] = tested on: RXF 393
[37] = tested on: DU-145
[38] = tested on: A498
[39] = tested on: SNB-19
[40] = tested on: SW-620
[41] = tested on: 786-0
[42] = tested on: EKVX
[43] = tested on: HCT-116
[44] = tested on: SR
[45] = tested on: SF-539
[46] = tested on: HOP-62
[47] = tested on: UACC-62
[48] = tested on: SN12C
[49] = tested on: MCF7
[50] = tested on: RPMI-8226
[51] = tested on: MDA-N
[52] = tested on: OVCAR-8
[53] = tested on: LOX IMVI
[54] = tested on: SK-MEL-28
[55] = tested on: CCRF-CEM
[56] = tested on: NCI-H522
[57] = tested on: K562
[58] = tested on: IGROV-1
[59] = tested on: HL-60

SMILES: Cc1c(NC(=S)N/N=C\C(=N/NC(=S)Nc2c(C)n(C)n(-c3ccccc3)c2=O)c2ccccc2)c(=O)n(-c2ccccc2)n1C
- GI50 [1]: > 100 µM (inactive)
- GI50 [2]: > 100 µM
- GI50 [3]: > 100 µM (inactive)
- GI50 [4]: > 100 µM (inactive)
- GI50 [5]: > 100 µM (inactive)
- GI50 [6]: > 100 µM (inactive)
- GI50 [7]: > 100 µM (inactive)
- GI50 [8]: > 100 µM (inactive)
- GI50 [9]: > 100 µM (inactive)
- GI50 [10]: > 100 µM (inactive)
- GI50 [11]: > 100 µM (inactive)
- GI50 [12]: > 100 µM (inactive)
- GI50 [13]: > 100 µM (inactive)
- GI50 [14]: > 100 µM (inactive)
- GI50 [15]: > 100 µM (inactive)
- GI50 [16]: > 100 µM (inactive)
- GI50 [17]: > 100 µM (inactive)
- GI50 [18]: > 100 µM (inactive)
- GI50 [19]: > 100 µM (inactive)
- GI50 [20]: > 100 µM (inactive)
- GI50 [21]: > 100 µM (inactive)
- GI50 [22]: > 100 µM (inactive)
- GI50 [23]: > 100 µM (inactive)
- GI50 [24]: > 100 µM (inactive)
- GI50 [25]: > 100 µM (inactive)
- GI50 [26]: > 100 µM (inactive)
- GI50 [27]: > 100 µM (inactive)
- GI50 [28]: > 100 µM (inactive)
- GI50 [29]: > 100 µM (inactive)
- GI50 [30]: > 100 µM (inactive)
- GI50 [31]: > 100 µM (inactive)
- GI50 [32]: > 100 µM (inactive)
- GI50 [33]: > 100 µM (inactive)
- GI50 [34]: > 100 µM (inactive)
- GI50 [35]: 87.1 µM (inactive)
- GI50 [36]: > 100 µM (inactive)
- GI50 [37]: > 100 µM (inactive)
- GI50 [38]: > 100 µM (inactive)
- GI50 [39]: > 100 µM (inactive)
- GI50 [40]: > 100 µM (inactive)
- GI50 [41]: > 100 µM (inactive)
- GI50 [42]: > 100 µM (inactive)
- GI50 [43]: > 100 µM (inactive)
- GI50 [44]: > 100 µM (inactive)
- GI50 [45]: > 100 µM (inactive)
- GI50 [46]: > 100 µM (inactive)
- GI50 [47]: > 100 µM (inactive)

SMILES: Cc1ccc(C)n1-c1ccccc1C1C=Cn2c3c1c(=O)c(OC(C)C)c(OC(C)C)c-3n[nH]c2=O (stereo not given)
- GI50 [1]: 21.4 µM (inactive)
- GI50 [2]: 21.7 µM
- GI50 [48]: 42 µM (inactive)
- GI50 [3]: 27 µM (inactive)
- GI50 [4]: 35.4 µM (inactive)
- GI50 [49]: 22.2 µM (inactive)
- GI50 [5]: > 100 µM (inactive)
- GI50 [50]: 8.3 µM (inactive)
- GI50 [6]: 20 µM (inactive)
- GI50 [7]: 59.2 µM (inactive)
- GI50 [51]: 37.6 µM (inactive)
- GI50 [8]: 53.8 µM (inactive)
- GI50 [9]: 5.01 µM (inactive)
- GI50 [10]: 35.5 µM (inactive)
- GI50 [11]: 44 µM (inactive)
- GI50 [12]: 13.1 µM (inactive)
- GI50 [52]: 33.7 µM (inactive)
- GI50 [13]: 45.8 µM (inactive)
- GI50 [14]: 84.7 µM (inactive)
- GI50 [15]: 10.3 µM (inactive)
- GI50 [16]: 37.6 µM (inactive)
- GI50 [17]: 31.8 µM (inactive)
- GI50 [18]: 33.6 µM (inactive)
- GI50 [19]: 23.6 µM (inactive)
- GI50 [20]: 19.9 µM (inactive)
- GI50 [21]: 64.3 µM (inactive)
- GI50 [22]: 38.9 µM (inactive)
- GI50 [23]: 6.62 µM (inactive)
- GI50 [53]: 25.9 µM (inactive)
- GI50 [24]: 21.8 µM (inactive)
- GI50 [25]: 19.9 µM (inactive)
- GI50 [54]: 17.5 µM (inactive)
- GI50 [26]: 32.7 µM (inactive)
- GI50 [27]: 32.6 µM (inactive)
- GI50 [28]: > 100 µM (inactive)
- GI50 [55]: 13.3 µM (inactive)
- GI50 [30]: 23.4 µM (inactive)
- GI50 [31]: 25.1 µM (inactive)
- GI50 [32]: 32.6 µM (inactive)
- GI50 [33]: 25.4 µM (inactive)
- GI50 [34]: 32.7 µM (inactive)
- GI50 [56]: 17 µM (inactive)
- GI50 [57]: 12.2 µM (inactive)
- GI50 [35]: 18.7 µM (inactive)
- GI50 [36]: 23 µM (inactive)
- GI50 [37]: 99.3 µM (inactive)
- GI50 [38]: > 100 µM (inactive)
- GI50 [39]: 76.2 µM (inactive)
- GI50 [40]: 18.3 µM (inactive)
- GI50 [41]: 20.9 µM (inactive)
- GI50 [58]: 30.1 µM (inactive)
- GI50 [42]: 28.4 µM (inactive)
- GI50 [43]: 19.2 µM (inactive)
- GI50 [45]: 58.3 µM (inactive)
- GI50 [59]: 5.45 µM (inactive)
- GI50 [46]: 40 µM (inactive)
- GI50 [47]: 39.4 µM (inactive)

SMILES: C/C(=C\Cc1ccc(F)cc1)CCCCCC/C(C)=C/Cc1ccc(F)cc1
- GI50 [2]: 16.8 µM
- GI50 [48]: 15.7 µM (inactive)
- GI50 [3]: 10 µM (inactive)
- GI50 [4]: 30.8 µM (inactive)
- GI50 [49]: 19.3 µM (inactive)
- GI50 [5]: 37.8 µM (inactive)
- GI50 [6]: 16.9 µM (inactive)
- GI50 [7]: 19.5 µM (inactive)
- GI50 [51]: 18.5 µM (inactive)
- GI50 [8]: 10.8 µM (inactive)
- GI50 [9]: 12.1 µM (inactive)
- GI50 [10]: 22.9 µM (inactive)
- GI50 [11]: 15.5 µM (inactive)
- GI50 [12]: 16.4 µM (inactive)
- GI50 [52]: 14.4 µM (inactive)
- GI50 [13]: 12.2 µM (inactive)
- GI50 [14]: 10.2 µM (inactive)
- GI50 [15]: 15.8 µM (inactive)
- GI50 [16]: 4.71 µM (inactive)
- GI50 [17]: 9.89 µM (inactive)
- GI50 [18]: 17.9 µM (inactive)
- GI50 [20]: 2.25 µM (inactive)
- GI50 [21]: 10.7 µM (inactive)
- GI50 [22]: 16.3 µM (inactive)
- GI50 [23]: 17.7 µM (inactive)
- GI50 [53]: 3.91 µM (inactive)
- GI50 [24]: 16.5 µM (inactive)
- GI50 [25]: 16.1 µM (inactive)
- GI50 [26]: 28.6 µM (inactive)
- GI50 [27]: 11.9 µM (inactive)
- GI50 [28]: 16.2 µM (inactive)
- GI50 [55]: 8.28 µM (inactive)
- GI50 [30]: 3.65 µM (inactive)
- GI50 [31]: 17.4 µM (inactive)
- GI50 [32]: 18.1 µM (inactive)
- GI50 [33]: 18.7 µM (inactive)
- GI50 [34]: 18.1 µM (inactive)
- GI50 [56]: 6.59 µM (inactive)
- GI50 [57]: 5.3 µM (inactive)
- GI50 [36]: 20.7 µM (inactive)
- GI50 [37]: 14.2 µM (inactive)
- GI50 [39]: 32.9 µM (inactive)
- GI50 [40]: 17.9 µM (inactive)
- GI50 [41]: 7.13 µM (inactive)
- GI50 [58]: 4.63 µM (inactive)
- GI50 [42]: 14.9 µM (inactive)
- GI50 [43]: 15.8 µM (inactive)
- GI50 [44]: 18.3 µM (inactive)
- GI50 [45]: 16.7 µM (inactive)
- GI50 [46]: 10.5 µM (inactive)
- GI50 [47]: 16.6 µM (inactive)
